Source: patent US8969288B2 (Indiana University Research and Technology Corporation, priority 2008, dated 2015)
Read-outs that look alike come from different tables or passages of the source. Square brackets hold non-standard residues; d marks the D form. Side chains are listed from the residue outwards. Ends that are not written are not given here. Peptide text beside a SMILES is read from it. maleimide = maleimide activating group on PEG that reacts with a thiol-containing amino acid by Michael addition to form a thioether linkage (PEGylation); Aib = CC(C)(N)C(=O)O; Sar = CNCC(=O)O

Legend:
glucagon receptor = glucagon receptor (Homo sapiens, UniProt P47871); test: glucagon antagonism of Class 4 peptides, cAMP production in vitro; type: cell-based; conditions: PLA at position 6 versus positions 4 and 5
GLP-1 receptor = GLP-1 receptor (Homo sapiens, UniProt P43220); test: GLP-receptor Luciferase assay of prodrug samples incubated in PBS; type: cell-based; conditions: Table 5
[1] = Dipeptide cleavage half time in PBS on model hexapeptide (HPLC, LC-MS); type: physicochemical; conditions: for Relative peak area(%), HPLC peak a: molecular weight 702; for Relative peak area(%), HPLC peak b: molecular weight 902
Description: The hexapeptide was assembled on a peptide synthesizer.
Then it was incubated at 37° C. in a water bath. […] HPLC was used to monitor the cleavage reaction.
The flow rate was 1 mL/min.
The slope of this plot gives the rate constant I′.

Chain of GLP-1 receptor (P43220 24-463, species assumed): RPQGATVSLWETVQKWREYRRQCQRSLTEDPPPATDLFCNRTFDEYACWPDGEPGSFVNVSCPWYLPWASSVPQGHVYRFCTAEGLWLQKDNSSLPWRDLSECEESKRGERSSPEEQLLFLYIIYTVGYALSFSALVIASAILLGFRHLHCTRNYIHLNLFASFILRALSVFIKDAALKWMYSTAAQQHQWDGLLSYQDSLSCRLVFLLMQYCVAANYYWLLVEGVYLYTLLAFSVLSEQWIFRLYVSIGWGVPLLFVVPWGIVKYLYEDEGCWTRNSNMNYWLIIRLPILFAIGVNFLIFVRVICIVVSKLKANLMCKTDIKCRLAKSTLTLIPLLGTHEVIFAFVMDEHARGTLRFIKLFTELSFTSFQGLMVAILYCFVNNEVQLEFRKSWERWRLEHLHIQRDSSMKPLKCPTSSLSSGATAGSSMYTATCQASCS
Chain of glucagon receptor (P47871 26-477): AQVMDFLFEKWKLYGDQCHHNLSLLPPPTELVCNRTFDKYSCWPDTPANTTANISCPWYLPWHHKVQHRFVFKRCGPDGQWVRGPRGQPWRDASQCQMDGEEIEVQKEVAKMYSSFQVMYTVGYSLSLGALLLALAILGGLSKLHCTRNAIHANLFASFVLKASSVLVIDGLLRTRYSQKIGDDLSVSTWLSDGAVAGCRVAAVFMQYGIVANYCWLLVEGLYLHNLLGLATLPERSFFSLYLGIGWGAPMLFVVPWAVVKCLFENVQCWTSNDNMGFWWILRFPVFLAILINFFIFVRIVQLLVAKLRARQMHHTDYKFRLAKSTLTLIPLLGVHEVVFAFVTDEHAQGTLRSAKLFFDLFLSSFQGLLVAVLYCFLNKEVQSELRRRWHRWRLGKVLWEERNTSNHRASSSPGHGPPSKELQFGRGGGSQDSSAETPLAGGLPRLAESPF

PLA6 analog: glucagon peptide with first 5 amino acids removed and remaining N-terminal amino group replaced with a hydroxyl group (phenyl-lactic acid)
glucagon antagonist potency compared with analogs having a slightly extended N-terminus (glucagon receptor): appreciably more potent antagonist

C[C@H](O)[C@@H](NC(=O)CNC(=O)[C@@H](CCCNC(=N)N)NC(=O)[C@H](NC(=O)[C@@H](Cc1c[nH]cn1)NC(=O)CN(C)C(=O)[C@@H](N)CCCCN)[C@H](C)O)C(=O)N[C@H](Cc1ccccc1)C(N)=O [lys-sar-dHdTdRGdTdF-NH2] (H-K[Sar][dH][dT][dR]G[dT][dF]-NH2)
Relative peak area(%), HPLC peak a (5 h in plasma pH 7.4, 37° C., molecular weight 702): 17.0% | Relative peak area(%), HPLC peak b (5 h in plasma, molecular weight 902): 83.0% | Relative peak area(%), HPLC peak a (11 h in plasma): 29.2% | Relative peak area(%), HPLC peak b (11 h in plasma): 70.8% | Relative peak area(%), HPLC peak a (24 h in plasma): 60.2% | Relative peak area(%), HPLC peak b (24 h in plasma): 39.8% | Relative peak area(%), HPLC peak a (32 h in plasma): 54.0% | Relative peak area(%), HPLC peak b (32 h in plasma): 46.0% | Relative peak area(%), HPLC peak a (48 h in plasma): 27.6% | Relative peak area(%), HPLC peak b (48 h in plasma): 72.4%

40 k PEG-Aib^−1-P^0,C^24GLP(7-36): Aib^−1-P^0,C^24GLP(7-36) pegylated by maleimido-functioned 40 k Da PEG on the SH group of 24-Cys ([Aib]PHAEGTFTSDVSSYLEGQAAKEFIC([maleimide-PEG 40 kDa])WLVKGR; ends and bridges not checked)
EC50%/STD ratio (GLP-1 receptor; 30 h in PBS): 17.31% | EC50%/STD ratio (GLP-1 receptor; 54 h in PBS): 27.74% | EC50%/STD ratio (GLP-1 receptor; 240 h in PBS): 66.49% | EC50%/STD ratio (GLP-1 receptor; […] in PBS): 55.90%

C[C@@H](O)[C@H](NC(=O)CNC(=O)[C@H](CCCNC(=N)N)NC(=O)[C@H](CO)NC(=O)[C@H](Cc1c[nH]cn1)NC(=O)CN(C)C(=O)[C@@H](N)CCCCN)C(=O)N[C@@H](Cc1ccccc1)C(N)=O [lys-sar-HSRGTF-NH2] (H-K[Sar]HSRGTF-NH2; N-terminus assumed)
Relative peak area(%), HPLC peak a ([1]; 5 h in PBS pH 7.4, 37° C.): 26.5% | Relative peak area(%), HPLC peak b ([1]; 5 h in PBS pH 7.4, 37° C.): 73.5% | Relative peak area(%), HPLC peak a ([1]; 8 h in PBS): 28.9% | Relative peak area(%), HPLC peak b ([1]; 8 h in PBS): 71.1% | Relative peak area(%), HPLC peak a ([1]; 24 h in PBS): 28.8% | Relative peak area(%), HPLC peak b ([1]; 24 h in PBS): 71.2% | Relative peak area(%), HPLC peak a ([1]; 31 h in PBS): 77.7% | Relative peak area(%), HPLC peak b ([1]; 31 h in PBS): 22.3% | Relative peak area(%), HPLC peak a ([1]; 47 h in PBS): 90.0% | Relative peak area(%), HPLC peak b ([1]; 47 h in PBS): 10.0% | half-life ([1]; phosphate buffered saline (PBS) buffer, pH 7.4): 14 h
